Assay results: US12297294B2, “Cortistatin analogues for the treatment of inflammatory and/or immune diseases” (BCN PEPTIDES, S.A., priority 2013, dated 2025)
Where a SMILES comes first, the peptide text is derived from it. Bridges are numbered along the chain shown (N, C = ends).

Tests used:
[1] = Serum stability in 90% human serum at 37° C., RP-HPLC; assay type: in vitro ADME
Protocol: The new compounds were incubated with 90% human serum at 37° C. Aliquots were extracted at different incubation times. Methanol was added to precipitate the proteins from the serum, it was centrifuged and the supernatant was subject to a chromatographic analysis using RP-HPLC (Gradient: 20-80% B in 30 min, B=0.07% TFA in acetonitrile). The disappearance of the initial product was analyzed using the area corresponding to the initial product and half-life time was calculated.

[2] = tested on: acute colitis induced by Dextran sulfate sodium (DSS); experiment: Experimental model of ulcerative colitis (DSS-induced acute colitis); assay type: in vivo, C57Bl/6 male mice
Protocol: 7-8 week old C57Bl/6 male mice were used. They were given voluntary drinking water with 5% of Dextran sulfate sodium (DSS) from day 0 to day 7 of the study in order to induce acute colitis. Animals in the control group were supplied with normal water. […] CST was used as a reference product. The severity of the colitis was assessed daily using a scale of values from 0 to 4 indicating the clinical disease activity index considering stool consistency, the presence of bloody stools and weight loss. Mice were sacrificed on day 8 of the study and after the necropsy the extent of macroscopic damage was established in the colon using a scale from 0 to 8. […] The average weight of the sick mice's colons was 763 mg, the average weight of the colons of the sick mice treated with CST was 621 mg and that of the colons of the sick mice treated with the new cortistatin analogues was between 614-621 mg, indicating a reduction of the inflammation of the colon.

For `C[C@@H](O)[C@@H]1NC(=O)[C@H](CCCCN)NC(=O)[C@H](Cc2c[nH]c3ccccc23)NC(=O)[C@H](Cc2ccccc2)NC(=O)[C@H](Cc2ccccc2)NC(=O)[C@H](CC(N)=O)NC(=O)[C@H](CCCCN)NC(=O)[C@@H](NC(=O)[C@@H]2CCCN2)CSSC[C@@H](C(=O)N[C@@H](CCCCN)C(=O)O)NC(=O)[C@H](CO)NC(=O)[C@H](CO)NC(=O)[C@H](Cc2ccccc2)NC1=O` [cortistatin] (H-PCKNFFWKTFSSCK-OH; disulfide 2-13), which half-life [1] is on record?
The half-life was 2 min.

And the “clinical disease activity index (0-4)” value ([2]; 5% DSS, 0.4 mg/Kg s.c. days 1, 2 and 3, diseased group 3.7)?
Its value is 1-1.5.

What about the “average weight of colon” value ([2]; necropsy day 8, sick mice 763 mg) of the same compound?
Its value is 621 mg.

And the “macroscopic grade of colitis (0-8)” value ([2]; necropsy day 8, sick mice 6.6)?
The value was 0.87.
